Source: patent US7521472B2, “Crystal of two-ring heterocyclic sulfonamide compound” (Eisai R&D Management Co., Ltd., priority 2004, dated 2009)

Experiments:
Format in all cases: physicochemical
[1] = Solubility of α-type and β-type crystals in Britton-Robinson buffers (I=0.3); conditions: for Solvent amount (ml) required to solve 1 g of compound (1): 25° C. within 30 minutes
Procedure: (§1) The results are shown in Tables 5 to 8. • (1) Test method:
(§2) The solubility in organic solvents and buffer solutions (Britton-Robinson Buffer: ionic strength (I)=0.3) was examined.
(§3) Specifically, according to the method described in USP 25 (U.S. PHARMACOPEIA 25(USP25), p 8, General Notices, Solubility), crystalline N-(3-chloro-1H-indol-7-yl)-4-sulfamoylbenzenesulfonamide was evaluated in terms of solubility in various organic solvents and Britton-Robinson buffers (pH 3, 5, 7, 9, and 11; I=0.3). The amount of each solvent was recorded that was required to solve a 10-mg sample of (N-(3-chloro-1H-indol-7-yl)-4-sulfamoylbenzenesulfonamide) at 25° C. within 30 minutes. In this study, the container was vigorously shaken for 30 seconds every 5 minutes, and the solubility was visually checked. • (2) Results: […]

[2] = Solubility of α-type and β-type crystals in organic solvents and water (USP 25 method); conditions: for Solvent amount (ml) required to solve 1 g of compound (1): 25° C. within 30 minutes
Procedure: as §1, §2, §3

[3] = Physical properties of the β-type crystal (crystal form stability, hygroscopicity)
[4] = Britton-Robinson Buffer pH 3, I=0.3
[5] = Britton-Robinson Buffer pH 5, I=0.3
[6] = Britton-Robinson Buffer pH 7, I=0.3
[7] = Britton-Robinson Buffer pH 9, I=0.3
[8] = Britton-Robinson Buffer pH 11, I=0.3

| Structure (SMILES) | Solvent amount (ml) required to solve 1 g of compound (1) [1, 4] [mL] | Solvent amount (ml) required to solve 1 g of compound (1) [1, 5] [mL] | Solvent amount (ml) required to solve 1 g of compound (1) [1, 6] [mL] | Solvent amount (ml) required to solve 1 g of compound (1) [1, 7] [mL] | Solvent amount (ml) required to solve 1 g of compound (1) [1, 8] [mL] | Solvent amount (ml) required to solve 1 g of compound (1) ([2]; 1-octanol) [mL] | Solvent amount (ml) required to solve 1 g of compound (1) ([2]; Acetone) [mL] | Solvent amount (ml) required to solve 1 g of compound (1) ([2]; Acetonitrile) [mL] | Solvent amount (ml) required to solve 1 g of compound (1) ([2]; Ethanol) [mL] | Solvent amount (ml) required to solve 1 g of compound (1) ([2]; Ethyl acetate) [mL] | Solvent amount (ml) required to solve 1 g of compound (1) ([2]; Heptane) [mL] | Solvent amount (ml) required to solve 1 g of compound (1) ([2]; Isopropylether) [mL] | Solvent amount (ml) required to solve 1 g of compound (1) ([2]; Methanol) [mL] | Solvent amount (ml) required to solve 1 g of compound (1) ([2]; N,N-dimethylformamide) [mL] | Solvent amount (ml) required to solve 1 g of compound (1) ([2]; Water) [mL] | solubility in the buffer solution compared with the α-type crystal ([1]; Britton-Robinson Buffer, ionic strength 0.3) | hygroscopicity [3] | stability of the crystal form ([3]; transformation into other crystal forms or amorphous forms) | solubility in various organic solvents in comparison with the α-type crystal ([2]; for example, ethanol, ethyl acetate) |
| --- | --- | --- | --- | --- | --- | --- | --- | --- | --- | --- | --- | --- | --- | --- | --- | --- | --- | --- | --- |
| NS(=O)(=O)c1ccc(S(=O)(=O)Nc2cccc3c(Cl)c[nH]c23)cc1 [compound (1) (α-type crystal), N-(3-chloro-1H-indol-7-yl)-4-sulfamoylbenzenesulfonamide, reference compound] | >10000 | >10000 | >10000 | >10000 | 993 | >10000 | 21 | 97 | 1194 | 1090 | >10000 | >10000 | 100.4 | 9.6 | >10000 |  |  |  |  |
| NS(=O)(=O)c1ccc(S(=O)(=O)Nc2cccc3c(Cl)c[nH]c23)cc1 [compound (1) (β-type crystal), N-(3-chloro-1H-indol-7-yl)-4-sulfamoylbenzenesulfonamide] | >10000 | >10000 | >10000 | >10000 | 553 | >10000 | 14 | 74 | 373 | 322 | >10000 | >10000 | 60 | 6 | >10000 | higher solubility | non hygroscopicity | stable | high solubility |
